Experimental data taken from patent US8569302B2, “Inhibitors of flaviviridae viruses” (Gilead Sciences, Inc., priority 2009, dated 2013).

System: human hepatoma Huh-7 cell line harboring a HCV replicon
Test: HCV replicon assay (inhibition of viral replication, luciferase readout)
Type: cell-based
Details: Hepatitis C virus, 72 h, Huh-7 HCV replicon cells, 3 days incubation
Description: The anti-HCV activity of the compounds of this invention was tested in a human hepatoma Huh-7 cell line harboring a HCV replicon. The assay comprised the following steps:
Step 1: Compound Preparation and Serial Dilution.
Serial dilution was performed in 100% DMSO in a 384-well plate. A solution containing a compound at 225-fold concentration of the starting final serial dilution concentration was prepared in 100% DMSO and 15 μL added to the pre-specified wells in column 3 or 13 of a polypropylene 384-well plate. The rest of the 384-well plate was filled with 10 μL 100% DMSO except for columns 23 and 24, where 10 μL of 500 μM a HCV protease inhibitor (ITMN-191) in 100% DMSO was added. The HCV protease inhibitor was used a control of 100% inhibition of HCV replication. The plate was then placed on a Biomek FX Workstation to start the serial dilution. The serial dilution was performed for ten cycles of 3-fold dilution from column 3 to 12 or from column 13 to 22.
Step 2: Cell Culture Plate Preparation and Compound Addition
To each well of a black polypropylene 384-well plate, 90 μL of cell media containing 1600 suspended Huh-7 HCV replicon cells was added with a Biotek uFlow Workstation. A volume of 0.4 μL of the compound solution was transferred from the serial dilution plate to the cell culture plate on a Biomek FX Workstation. The DMSO concentration in the final assay condition was 0.44%. The plates were incubated for 3 days at 37° C. with 5% CO2 and 85% humidity.
Step 3: Detection of Cytotoxicity and Inhibition of Viral Replication
a) Assessment of cytotoxicity: The media in the 384-well cell culture plate was aspirated with a Biotek EL405 plate-washer. A volume of 50 μL of a solution containing 400 nM Calcein AM in 100% PBS was added to each well of the plate with a Biotek uFlow Workstation. The plate was incubated for 30 minutes at room temperature before the fluorescence signal ([…]) was measured with a Perkin Elmer Envision Plate Reader.
b) Assessment of inhibition of viral replication: The calcein-PBS solution in the 384-well cell culture plate was aspirated with a Biotek EL405 plate-washer. A volume of 20 μL of Dual-Glo luciferase buffer (Promega, Dual-Glo Luciferase Assay Reagent, cat. #E298B) was added to each well of the plate with a Biotek uFlow Workstation. The plate was incubated for 10 minutes at room temperature. A volume of 20 μL of a solution containing 1:100 mixture of Dual-Glo Stop & Glo substrate (Promega, Dual-Glo Luciferase Assay Reagent, cat. #E313B) and Dual-Glo Stop & Glo buffer (Promega, Dual-Glo Luciferase Assay Reagent, cat. #E314B) was then added to each well of the plate with a Biotek uFlow Workstation. The plate was incubated at room temperature for 10 minutes before the luminescence signal was measured with a Perkin Elmer Envision Plate Reader.
The percent cytotoxicity was determined by calcein AM conversion to fluorescent product. The average fluorescent signal from the DMSO control wells was defined as 100% nontoxic. The individual fluorescent signal from testing compound treated well was divided by the average signal from DMSO control wells and then multiplied by 100% to get the percent viability. The percent anti-HCV replication activity was determined by the luminescence signal from the testing well compared to DMSO control wells. The background signal was determined by the average luminescence signal from the HCV protease inhibitor treated wells and was subtracted from the signal from the testing wells as well as the DMSO control wells. Following 3-fold serial dilutions, the EC50 and CC50 values were calculated by fitting % inhibition at each concentration to the following equation: % inhibition=100%/[EC50/[I])^b+1]
Where b is Hill's coefficient. See, for reference, Hill, A. V., The Possible Effects of the Aggregation of the Molecules of Hæmoglobin on its Dissociation Curves, J. Physiol. 40: iv-vii. (1910). […]

First: Cc1ccc(O[C@H]2CC[C@H](N(c3cc(C#CC(C)(C)C)sc3C(=O)O)C(=O)[C@H]3CC[C@H](C)CC3)CC2)nc1 [Compound 11, 5-(3,3-Dimethyl-but-1-ynyl)-3-{(trans-4-methyl-cyclohexanecarbonyl)-[trans-4-(5-methyl-pyridin-2-yloxy)-cyclohexyl]-amino}-thiophene-2-carboxylic acid]
Second: Cc1cccnc1O[C@H]1CC[C@H](N(c2cc(C#CC(C)(C)C)sc2C(=O)O)C(=O)[C@H]2CC[C@H](C)CC2)CC1 [Compound 12, 5-(3,3-Dimethyl-but-1-ynyl)-3-{(trans-4-methyl-cyclohexanecarbonyl)-[trans-4-(3-methyl-pyridin-2-yloxy)-cyclohexyl]-amino}-thiophene-2-carboxylic acid]
The inhibition at 2 µM of the first is higher: 99.9% for the first, 99.7% for the second.

Going from `CC(C)(C)C#Cc1cc(N(C(=O)[C@H]2CC[C@H](C)CC2)[C@H]2CC[C@H](Oc3cccc(C#N)n3)CC2)c(C(=O)O)s1` [Compound 13, 3-[[trans-4-(6-Cyano-pyridin-2-yloxy)-cyclohexyl]-(trans-4-methyl-cyclohexanecarbonyl)-amino]-5-(3,3-dimethyl-but-1-ynyl)-thiophene-2-carboxylic acid] to `CC(C)(C)C#Cc1cc(N(C(=O)[C@H]2CC[C@H](C)CC2)[C@H]2CC[C@H](Oc3cccc(C(F)(F)F)n3)CC2)c(C(=O)O)s1` [Compound 17, 5-(3,3-Dimethyl-but-1-ynyl)-3-{(trans-4-methyl-cyclohexanecarbonyl)-[trans-4-(6-trifluoromethyl-pyridin-2-yloxy)-cyclohexyl]-amino}-thiophene-2-carboxylic acid], the inhibition at 2 µM falls from 99.3% to 67.6%.

Compared with `CC(C)(C)C#Cc1cc(N(C(=O)[C@H]2CC[C@H](C)CC2)[C@H]2CC[C@H](Oc3ccc(=O)[nH]n3)CC2)c(C(=O)O)s1` [Compound 14, 5-(3,3-Dimethyl-but-1-ynyl)-3-{(trans-4-methyl-cyclohexanecarbonyl)-[trans-4-(6-oxo-1,6-dihydropyridazin-3-yloxy)-cyclohexyl]-amino}-thiophene-2-carboxylic acid], `CC(C)(C)C#Cc1cc(N(C(=O)[C@H]2CC[C@H](C)CC2)[C@H]2CC[C@H](Oc3nccs3)CC2)c(C(=O)O)s1` [Compound 15, 5-(3,3-Dimethyl-but-1-ynyl)-3-{(trans-4-methyl-cyclohexanecarbonyl)-[trans-4-(thiazol-2-yloxy)-cyclohexyl]-amino}-thiophene-2-carboxylic acid] is lower in inhibition at 2 µM: 100% for the first, 99.6% for the second.

Compared with `CC(C)(C)C#Cc1cc(N(C(=O)[C@H]2CC[C@H](C)CC2)[C@H]2CC[C@H](Oc3ncccc3C(F)(F)F)CC2)c(C(=O)O)s1` [Compound 16, 5-(3,3-Dimethyl-but-1-ynyl)-3-{(trans-4-methyl-cyclohexanecarbonyl)-[trans-4-(3-trifluoromethyl-pyridin-2-yloxy)-cyclohexyl]-amino}-thiophene-2-carboxylic acid], `CC1CCC(C(=O)N(c2cc(C#CC(C)(C)C)sc2C(=O)O)[C@H]2CC[C@H](Oc3ccnc4ccccc34)CC2)CC1` (some centres unmarked) [Compound 25, 5-(3,3-Dimethyl-but-1-ynyl)-3-{(4-methyl-cyclohexanecarbonyl)-[4-(quinolin-4-yloxy)-cyclohexyl]-amino}-thiophene-2-carboxylic acid] is higher in inhibition at 2 µM: 75.1% for the first, 99.3% for the second.

Compared with `CC(C)(C)C#Cc1cc(N(C(=O)[C@H]2CC[C@H](C)CC2)[C@H]2C[C@@H](Oc3cccnc3)C2)c(C(=O)O)s1` [Compound 20, 5-(3,3-Dimethyl-but-1-ynyl)-3-{(trans-4-methyl-cyclohexanecarbonyl)-[cis-3-(pyridin-3-yloxy)-cyclobutyl]-amino}-thiophene-2-carboxylic acid], `CC(C)(C)C#Cc1cc(N(C(=O)[C@H]2CC[C@H](C)CC2)[C@H]2C[C@H](Oc3cccnc3)C2)c(C(=O)O)s1` [Compound 21, 5-(3,3-Dimethyl-but-1-ynyl)-3-[(trans-4-methyl-cyclohexanecarbonyl)-{trans-3-(pyridin-3-yloxy)-cyclobutyl]-amino}-thiophene-2-carboxylic acid] is lower in inhibition at 2 µM: 99.8% for the first, 98.8% for the second.

First: CC(C)(C)C#Cc1cc(N(C(=O)[C@H]2CC[C@H](C)CC2)[C@H]2C[C@@H](Oc3ncccn3)C2)c(C(=O)O)s1 [Compound 22, 5-(3,3-Dimethyl-but-1-ynyl)-3-{(trans-4-methyl-cyclohexanecarbonyl)-[cis-3-(pyrimidin-2-yloxy)-cyclobutyl]-amino}-thiophene-2-carboxylic acid]
Second: CC(C)(C)C#Cc1cc(N(C(=O)[C@H]2CC[C@H](C)CC2)[C@H]2C[C@H](Oc3ncccn3)C2)c(C(=O)O)s1 [Compound 23, 5-(3,3-Dimethyl-but-1-ynyl)-3-{(trans-4-methyl-cyclohexanecarbonyl)-[trans-3-(pyrimidin-2-yloxy)-cyclobutyl]-amino}-thiophene-2-carboxylic acid]
The inhibition at 2 µM of the first is lower: 96.2% for the first, 99.5% for the second.

First: CCc1cc(O[C@H]2CC[C@H](N(C(=O)C3CCC(C)CC3)c3cc(C#CC(C)(C)C)sc3C(=O)O)CC2)cc(CC)n1 (some centres unmarked) [Compound 26, 3-[[4-(2,6-diethyl-pyridin-4-yloxy)-cyclohexyl]-(4-methyl-cyclohexanecarbonyl)-amino]-5-(3,3-Dimethyl-but-1-ynyl)-thiophene-2-carboxylic acid]
Second: CC1CCC(C(=O)N(c2cc(C#CC(C)(C)C)sc2C(=O)O)[C@H]2CC[C@H](Oc3cc(CN(C)C)ccn3)CC2)CC1 (some centres unmarked) [Compound 29, 3-[[-4-(4-dimethylaminomethyl-pyridin-2-yloxy)-cyclohexyl]-(4-methyl-cyclohexanecarbonyl)-amino]-5-(3,3-Dimethyl-but-1-ynyl)-thiophene-2-carboxylic acid]
The inhibition at 2 µM of the first is lower: 99.8% for the first, 100% for the second.

Going from `CC(C)(C)C#Cc1cc(N(C(=O)[C@H]2CC[C@H](C)CC2)[C@H]2CC[C@H](Oc3cc(CN4CCCC4)ccn3)CC2)c(C(=O)O)s1` [Compound 27, 5-(3,3-Dimethyl-but-1-ynyl)-3-{(trans-4-methyl-cyclohexanecarbonyl)-[trans-4-(4-pyrrolidin-1-ylmethyl-pyridin-2-yloxy)-cyclohexyl]-amino}-thiophene-2-carboxylic acid] to `CC1CCC(C(=O)N(c2cc(C#CC(C)(C)C)sc2C(=O)O)[C@H]2CC[C@H](Oc3cc(CN4CCOCC4)ccn3)CC2)CC1` (some centres unmarked) [Compound 28, 5-(3,3-Dimethyl-but-1-ynyl)-3-{(4-methyl-cyclohexanecarbonyl)-[4-(4-morpholin-4-ylmethyl-pyridin-2-yloxy)-cyclohexyl]-amino}-thiophene-2-carboxylic acid], the inhibition at 2 µM falls from 100% to 99.7%.

First: CC1CCC(C(=O)N(c2ccc(Oc3ccccn3)cc2)c2cc(C#CC(C)(C)C)sc2C(=O)O)CC1 (centres unmarked) [Compound 30, 5-(3,3-Dimethyl-but-1-ynyl)-3-{(4-methyl-cyclohexanecarbonyl)-[4-(pyridin-2-yloxy)-phenyl]-amino}-thiophene-2-carboxylic acid]
Second: C[C@@H](CCOc1ccccn1)N(c1cc(C#CC(C)(C)C)sc1C(=O)O)C(=O)[C@H]1CC[C@H](C)CC1 [Compound 60]
The inhibition at 2 µM of the first is lower: 70.7% for the first, 97.5% for the second.

`C[C@@H](CCOc1cccnc1)N(c1cc(C#CC(C)(C)C)sc1C(=O)O)C(=O)[C@H]1CC[C@H](C)CC1` [Compound 58] and `C[C@@H](CCOc1ncccn1)N(c1cc(C#CC(C)(C)C)sc1C(=O)O)C(=O)[C@H]1CC[C@H](C)CC1` [Compound 59] are the same in inhibition at 2 µM: 99.9% for the first, 99.9% for the second.
